System: Melanocytes (B16 cell line)
Assay: Melanogenesis inhibition assay (melanin level by optical density at 475 nm; viable cells by cellular proteins, Bradford's method)
Format: cell-based
Conditions: for Protein level (rate of cellular proteins) / Melanin level (rate of melanin): B16 melanocytes, 3 days incubation; for Protein level (rate of cellular proteins): Bradford's method; for Melanin level (rate of melanin): OD 475 nm
Method: Melanocytes (B16 cell line) were inoculated in standard medium of cell culture with foetal calf serum (FCS). After an incubation of 3 day at 37° C. and CO2=5%, growth medium was exchanged for standard medium with a range of concentrations for each compound to be tested and a control without ingredient. After an incubation of 3 days, the level of melanin was measured by recording the optical density at 475 nm. After washing the cells by a balanced salt, and homogenisation in a solution of 0.1 M NaOH, the number of viable cells was determined by evaluation of the level of cellular proteins (Bradford's method). The results are expressed in % against control (cell culture medium without compound) as a mean on 1 to 3 assays, each in triplicate.

CC(Oc1ccc(O)cc1)C(=O)O (racemic) [2-(4-hydroxyphenoxy)-propionic acid]
Protein level (rate of cellular proteins) (dose 0.00003 % (w/v)): 103 %/control | Melanin level (rate of melanin) (dose 0.00003 % (w/v)): 84 %/control | Protein level (rate of cellular proteins) (dose 0.0001 % (w/v)): 97 %/control | Melanin level (rate of melanin) (dose 0.0001 % (w/v)): 57 %/control | Protein level (rate of cellular proteins) (dose 0.0003 % (w/v)): 107 %/control | Melanin level (rate of melanin) (dose 0.0003 % (w/v)): 52 %/control | Protein level (rate of cellular proteins) (dose 0.001 % (w/v)): 104 %/control | Melanin level (rate of melanin) (dose 0.001 % (w/v)): 39 %/control | Protein level (rate of cellular proteins) (dose 0.01 % (w/v)): 98 %/control | Melanin level (rate of melanin) (dose 0.01 % (w/v)): 37 %/control | cell toxicity (melanocytes, doses up to 0.01%): without any cell toxicity | rate of melanin synthesis in melanocytes (result in words, over the tested dose range): decreased in a dose dependant manner
